Assay [1] relates to Calu6 (KRAS^Q16K) cancer cell. Kind of assay: Calu6 Cancer Cell Growth Inhibition Assay (CellTiter-Glo). Type of assay: cell-based, human. Particulars: for GI50: Homo sapiens, Calu-6, 72 h, Calu6 cells, incubated for 3 days, CellTiter-Glo. How it is done:
(§1) Activity of human Calu6 (KRAS^Q16K) cancer cell growth inhibition was assessed in vitro using CellTiter-Glo® Luminescent Cell Viability Assay. The assay was performed according to the kit instructions (Promega, cat #G7570). Briefly, Calu6 cells (ATCC, #HTB-56™) were seeded in 96-well plates at a density of 2,500 cells/well in 90 and cells were cultured overnight in a humidified, 5% CO2 cell culture incubator at 37° C. 10 μL serial diluted compounds were added into each cell-culture well and incubated for 3 days. 100 μL CellTiter-Glo® Reagent was added into each well. The reactions were incubated at Room Temperature for 10 minutes, and luminescence signals were recorded on a Tecan Luminescence Plate Reader. Inhibition data were calculated by comparison to vehicle control wells for 0% inhibition and non-stimulated control wells for 100% inhibition. Dose response curves were then generated to determine the concentration required to suppress 50% of cellular growth response (GI50) as derived by non-linear regression analysis using GraphPad Prism.

Assay [2] deals with T1, human recombinant V600E mutant BRAF (Homo sapiens, UniProt P15056, V600E).
T1 construct: purchased BPS Bioscience 40533
Kind of assay: BRAF^V600E Inhibition Assay (TR-FRET). Type of assay: biochemical. How it is done:
Activity of human recombinant V600E mutant BRAF were assessed in vitro using time-resolved fluorescence resonance energy transfer (TR-FRET) assay. The assay was performed according to the kit instructions. Briefly, the V600E mutant BRAF enzyme (BPS Bioscience, cat #40533) was diluted to 0.027 ng/μL using the 1× kinase buffer A (Life Tech, cat #PV6135, 5× dilution with H2O); the Fluorescein labeled-MAP2K1 (Life Tech, Cat #PV4812) was diluted to 0.5 μM; ATP (Life Tech, cat #PV3227) was diluted to 20 μM; 2.5 μl of each diluted reagent was added to a 384-well (PerkinElmer, ProxiPlate-384 Plus, 6008280) plate and mixed together; 2.54, serial diluted compounds were added into the mixture. 104, 400-fold diluted LanthaScreen Tb-pMAP2K1 (pSer217/221) antibody (Life Tech, cat #PV4817) was then added to each kinase reaction. The reactions were incubated at Room Temperature for 1 hour. The plate was then read on PHERAstar FSX using 340/490/520 module. Inhibition data were calculated by comparison to vehicle control wells for 0% inhibition and non-stimulated control wells for 100% inhibition. Dose response curves were then generated to determine the concentration required to suppress 50% of enzymatic response (IC50) as derived by non-linear regression analysis using GraphPad Prism.
On the technique in general: In TR-FRET formats the signal depends on donor and acceptor labels being close together.

Assay [3] has as its target T2, human recombinant BRAF (Homo sapiens, UniProt P15056).
T2 construct: purchased BPS Bioscience 40065
Kind of assay: BRAF^WT Inhibition Assay (TR-FRET). Type of assay: biochemical. The procedure:
(§2) Activity of human recombinant BRAF were assessed in vitro using time-resolved fluorescence resonance energy transfer (TR-FRET) assay. The assay was performed according to the kit instructions. Briefly, the BRAF enzyme (BPS Bioscience, cat #40065) was diluted to 0.027 ng/μL using the 1× kinase buffer A (Life Tech, cat #PV6135, 5× dilution with H2O); the Fluorescein labeled-MAP2K1 (Life Tech, Cat #PV4812) was diluted to 0.5 μM; ATP (Life Tech, cat #PV3227) was diluted to 20 μM; 2.54, of each diluted reagent was added to a 384-well plate (PerkinElmer, ProxiPlate-384 Plus, 6008280) and mixed together; 2.54, serial diluted compound were added into the mixture. 104, 400-fold diluted LanthaScreen Tb-pMAP2K1 (pSer217/221) antibody (Life Tech, cat #PV4817) was then added to each kinase reaction. The reactions were incubated at Room Temperature for 1 hour. The plate was then read on PHERAstar FSX using 340/490/520 module. Inhibition data were calculated by comparison to vehicle control wells for 0% inhibition and non-stimulated control wells for 100% inhibition. Dose response curves were then generated to determine the concentration required to suppress 50% of enzymatic response (IC50) as derived by non-linear regression analysis using GraphPad Prism.

Assay [4] concerns A375 (BRAF^V600E) malignant melanoma cell. Kind of assay: A375 Cell Growth Inhibition Assay (CellTiter-Glo). Type of assay: cell-based, human. Particulars: for GI50: Homo sapiens, A-375, 72 h, A375 cells, incubated for 3 days, CellTiter-Glo. The procedure:
as §1, with “A375 (BRAF^V600E) malignant melanoma” for “Calu6 (KRAS^Q16K) cancer”, “A375” for “Calu6”, “#CRL-1619™)” for “#HTB-56™)”, “[…]” for “100 μL”

In assay [5] the target is human recombinant cRAF (Homo sapiens, UniProt P04049). Description: cRAF Inhibition Assay (TR-FRET). Type of assay: biochemical. How it is done:
as §2, with “cRAF” for “BRAF”, “#40008)” for “#40065)”

Assay [6] relates to RAF Kinase. Conditions: background statement on the reference compound; cited from earlier work.
Assay [7] relates to NCI-H358 (KRAS^G12C) non-small cell lung cancer cell. Kind of assay: NCI-H358 Cancer Cell Growth Inhibition Assay (CellTiter-Glo). Type of assay: cell-based, human. Conditions: for GI50: Homo sapiens, 72 h, NCI-H358 cells, incubated for 3 days, CellTiter-Glo. How it is done:
as §1, with “NCI-H358 (KRAS^G12C) non-small cell lung” for “Calu6 (KRAS^Q16K)”, “NCI-H358” for “Calu6”, “#CRL-5807)” for “#HTB-56™)”, “in” for “in 90”
(In general: Cellular ATP, detected with luciferase, serves as a proxy for viable cell number.)

What is called GI50 is the concentration at which growth is held to half of that of the control. Broadly, the IC50 is the point on the concentration scale where inhibition reaches its midpoint.

T1 sequence (P15056 whole entry V600E): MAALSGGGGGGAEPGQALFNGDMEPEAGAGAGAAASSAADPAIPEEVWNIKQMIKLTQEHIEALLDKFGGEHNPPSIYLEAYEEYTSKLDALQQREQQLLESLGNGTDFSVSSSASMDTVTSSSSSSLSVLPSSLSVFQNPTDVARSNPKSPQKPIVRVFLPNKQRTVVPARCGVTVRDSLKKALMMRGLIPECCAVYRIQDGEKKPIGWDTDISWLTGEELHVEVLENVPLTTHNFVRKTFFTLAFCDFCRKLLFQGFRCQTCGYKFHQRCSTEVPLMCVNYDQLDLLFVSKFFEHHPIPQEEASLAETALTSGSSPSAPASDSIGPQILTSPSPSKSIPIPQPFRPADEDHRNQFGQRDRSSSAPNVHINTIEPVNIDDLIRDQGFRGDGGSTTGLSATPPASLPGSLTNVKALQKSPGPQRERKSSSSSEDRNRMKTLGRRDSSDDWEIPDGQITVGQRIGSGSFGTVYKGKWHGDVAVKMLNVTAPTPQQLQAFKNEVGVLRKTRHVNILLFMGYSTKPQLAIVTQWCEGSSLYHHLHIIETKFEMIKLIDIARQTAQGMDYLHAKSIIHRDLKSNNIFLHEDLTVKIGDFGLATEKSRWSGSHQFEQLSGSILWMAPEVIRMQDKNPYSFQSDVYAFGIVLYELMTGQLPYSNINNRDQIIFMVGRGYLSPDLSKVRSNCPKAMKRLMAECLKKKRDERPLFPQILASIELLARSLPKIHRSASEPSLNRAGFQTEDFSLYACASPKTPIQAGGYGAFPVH
Chain of human recombinant cRAF (P04049 whole entry Y340D/Y341D, form open): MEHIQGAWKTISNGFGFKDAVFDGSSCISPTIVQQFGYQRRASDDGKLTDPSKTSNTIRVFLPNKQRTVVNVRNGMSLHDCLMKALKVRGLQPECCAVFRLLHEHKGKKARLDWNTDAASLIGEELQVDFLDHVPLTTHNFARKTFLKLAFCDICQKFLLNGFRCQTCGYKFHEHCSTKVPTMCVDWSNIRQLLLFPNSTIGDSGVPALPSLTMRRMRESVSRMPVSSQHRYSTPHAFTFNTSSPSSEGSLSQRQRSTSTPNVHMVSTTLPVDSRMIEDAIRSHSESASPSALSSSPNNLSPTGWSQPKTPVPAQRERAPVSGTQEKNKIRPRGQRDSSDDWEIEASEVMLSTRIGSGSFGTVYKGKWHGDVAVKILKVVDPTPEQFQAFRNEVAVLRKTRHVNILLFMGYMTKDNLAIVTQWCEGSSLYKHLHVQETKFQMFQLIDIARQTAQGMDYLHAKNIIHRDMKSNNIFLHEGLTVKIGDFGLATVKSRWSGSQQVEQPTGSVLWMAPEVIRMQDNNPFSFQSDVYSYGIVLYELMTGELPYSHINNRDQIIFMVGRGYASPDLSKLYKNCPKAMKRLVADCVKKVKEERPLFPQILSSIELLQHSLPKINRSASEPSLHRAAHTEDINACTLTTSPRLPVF
T2 sequence (P15056 whole entry): as the sequence (P15056 whole entry V600E) above, with E600V counted along it

For the molecule `Cc1ccc(NC(=O)c2ccnc(C(F)(F)F)c2)cc1-c1cc(OCCO)nc(N2CCOCC2)c1` [LXH254, reference compound], the GI50 in assay [1] was determined as 920 nM; in assay [4], 890 nM; in assay [7], 3000 nM. In addition, the results for the IC50 in assay [2], in assay [3] and in assay [5] were 43 nM, 38 nM and 13 nM, respectively. In assay [6], the “potency for bRAF and cRAF” value is “nanomolar potency”.

Consider `Cc1ccc(NC(=O)c2ccc3c(c2)OC(F)(F)O3)cc1-c1cc(OCCO)nc(N2CCOCC2)c1` [Example 1, 2,2-difluoro-N-(3-(2-(2-hydroxyethoxy)-6-morpholinopyridin-4-yl)-4-methylphenyl)benzo[d][1,3]dioxole-5-carboxamide], for which the “cellular potency, Calu6” value in assay [1] (Calu6 cancer cell line) is reported as “excellent cellular potency”. For the same molecule, the values for the GI50 in assay [1], in assay [4] and in assay [7] were 64 nM, 150 nM and 480 nM, respectively. Further, the concentration for half-maximal inhibition (IC50) is 32.5 nM in assay [2], 87 nM in assay [3] and 15 nM in assay [5]. Further, the “cellular potency, A375” value in assay [4] (A375 cancer cell line) is “excellent cellular potency”. In addition, in assay [7] (H358 cancer cell line), the “cellular potency, H358” value was “excellent cellular potency”. Moreover, the “cell growth inhibition in H358 cancer line compared to LXH254” value in assay [7] (H358 cancer line, compared to LXH254) is reported as “better or similar cell growth inhibition”.

The values above are taken from patent publication US20220135539A1, “BIARYL AMIDE COMPOUNDS, PREPARATION METHODS AND MEDICAL APPLICATIONS THEREOF” (Eternity Bioscience Inc., priority 2020, published 2022).
